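Results reflect a 48-hour exposure of cells in 96-well plates to compound at five concentrations. Here, GI50 denotes the concentration required for 50% inhibition of growth.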 Activity calls are given as the source filed them. Cut-off read from the data, not from the text of the source: active = GI50 up to about 1.1 µM and inactive = higher.
Tests used:
Experiment in all cases: NCI anticancer screen, dose series, 48 h
[1] = tested on: A549
[2] = tested on: ACHN
[3] = tested on: HCT-116
[4] = tested on: IGROV-1
[5] = tested on: K562
[6] = tested on: KM12
[7] = tested on: M14
[8] = tested on: MCF7
[9] = tested on: MDA-N
[10] = tested on: NCI-H460
[11] = tested on: NCI/ADR-RES
[12] = tested on: OVCAR-8
[13] = tested on: RPMI-8226
[14] = tested on: SF-268
[15] = tested on: SK-MEL-2
[16] = tested on: SW-620
[17] = tested on: TK-10
[18] = tested on: UO-31
[19] = tested on: HCC 2998

| SMILES | GI50 [1] | GI50 [2] | GI50 [3] | GI50 [4] | GI50 [5] | GI50 [6] | GI50 [7] | GI50 [8] | GI50 [9] | GI50 [10] | GI50 [11] | GI50 [12] | GI50 [13] | GI50 [14] | GI50 [15] | GI50 [16] | GI50 [17] | GI50 [18] | GI50 [19] |
| --- | --- | --- | --- | --- | --- | --- | --- | --- | --- | --- | --- | --- | --- | --- | --- | --- | --- | --- | --- |
| CN(Cc1cc(Cl)cc(Cl)c1O)Cc1c(O)ccc2ccccc12 | 26 µM (inactive) | 17.3 µM (inactive) | 23.7 µM (inactive) | 17.3 µM (inactive) | 26 µM (inactive) | 19.9 µM (inactive) | 20.2 µM (inactive) | 17.5 µM (inactive) | 24.9 µM (inactive) | 18.4 µM (inactive) | 20.6 µM (inactive) | 19.5 µM (inactive) | 25 µM (inactive) | 13.6 µM (inactive) | 19.3 µM (inactive) | 31.7 µM (inactive) | 17.1 µM (inactive) | 17.3 µM (inactive) |  |
| Cc1ccc(/N=N/NCCCCN/N=N/c2ccc(C)cc2)cc1 | 6.04 µM (inactive) |  | 65.8 µM (inactive) | 12.5 µM (inactive) | > 100 µM (inactive) |  | 8.05 µM (inactive) | 78.3 µM (inactive) | 16.5 µM (inactive) | 12.5 µM (inactive) | > 100 µM (inactive) | 27.4 µM (inactive) |  | 96.8 µM (inactive) | > 100 µM (inactive) | > 100 µM (inactive) | 1.65 µM (inactive) | 0.196 µM (active) | 13.9 µM (inactive) |
| CC1(C)CC(=O)C2=C(C1)NC(=S)C(C#N)C2c1ccccc1 (stereo not given) | > 100 µM (inactive) | > 100 µM (inactive) | > 100 µM (inactive) | > 100 µM (inactive) | 75.9 µM (inactive) |  | > 100 µM (inactive) | > 100 µM (inactive) | > 100 µM (inactive) | > 100 µM (inactive) | > 100 µM (inactive) | > 100 µM (inactive) |  | > 100 µM (inactive) | > 100 µM (inactive) | > 100 µM (inactive) | > 100 µM (inactive) | > 100 µM (inactive) | > 100 µM (inactive) |
| CCN(CC)/C(Cl)=C(Cl)\C(=C1\Nc2ccc(OC)cc21)[N+](=O)[O-] | 58.9 µM (inactive) | 98.2 µM (inactive) | 44.6 µM (inactive) | 88.1 µM (inactive) | 31.7 µM (inactive) | 69.5 µM (inactive) | > 100 µM (inactive) | 54.8 µM (inactive) | 50.4 µM (inactive) | 31.1 µM (inactive) | 70.6 µM (inactive) | 63.4 µM (inactive) |  | 50.4 µM (inactive) |  | 43 µM (inactive) | 83.6 µM (inactive) | 95.1 µM (inactive) | > 100 µM (inactive) |
| Cc1cc(Nc2ccc(/N=N/c3ccc(O)c4ncccc34)cc2)nc(C)n1 | 9.82 µM (inactive) | 8.22 µM (inactive) | 8.93 µM (inactive) | 8.57 µM (inactive) | 3.78 µM (inactive) | 12.4 µM (inactive) | 12.6 µM (inactive) | 11 µM (inactive) | 6.62 µM (inactive) | 6.93 µM (inactive) | 6.28 µM (inactive) | 6.61 µM (inactive) | 5.61 µM (inactive) | 14.6 µM (inactive) | 13.8 µM (inactive) | 13.5 µM (inactive) | 17.9 µM (inactive) | 11 µM (inactive) |  |
| COC(=O)CCc1c(Cc2ccc[nH]2)[nH]c(C(=O)OCc2ccccc2)c1C | 33.4 µM (inactive) | 23.1 µM (inactive) | 18.6 µM (inactive) | 15.6 µM (inactive) | 25.5 µM (inactive) | 16.3 µM (inactive) | 16.8 µM (inactive) | 18.5 µM (inactive) | 18 µM (inactive) | > 100 µM (inactive) | 20.6 µM (inactive) | 24.8 µM (inactive) | 39.6 µM (inactive) | 23.2 µM (inactive) | 15.4 µM (inactive) | 21.6 µM (inactive) | 26 µM (inactive) |  |  |
| CC(C)(C)OC(=O)N1Cc2cc(O)ccc2C[C@H]1C(=O)O | > 100 µM (inactive) | > 100 µM (inactive) | > 100 µM (inactive) | > 100 µM (inactive) | > 100 µM (inactive) | > 100 µM (inactive) |  | > 100 µM (inactive) | > 100 µM (inactive) | > 100 µM (inactive) | > 100 µM (inactive) | > 100 µM (inactive) |  | > 100 µM (inactive) | > 100 µM (inactive) | > 100 µM (inactive) | > 100 µM (inactive) |  | > 100 µM (inactive) |
| COc1ccc2nc3ccc(OC)cc3c(S(=O)(=O)Cc3ccc([N+](=O)[O-])cc3)c2c1 | > 100 µM (inactive) | > 100 µM (inactive) | > 100 µM (inactive) | > 100 µM (inactive) | > 100 µM (inactive) | > 100 µM (inactive) | > 100 µM (inactive) | > 100 µM (inactive) | > 100 µM (inactive) | > 100 µM (inactive) | > 100 µM (inactive) | > 100 µM (inactive) |  | 85.5 µM (inactive) | > 100 µM (inactive) | > 100 µM (inactive) | > 100 µM (inactive) | > 100 µM (inactive) | > 100 µM (inactive) |
| COc1ccc(S(=O)(=O)n2c3c(c4ccccc42)[C@@H]2[C@@H](CCCN2C(=O)C[S+]([O-])c2ccc(C)cc2)[C@H](Cl)C3)cc1 (stereo not given in full) | > 100 µM (inactive) |  | > 100 µM (inactive) | 1.51 µM (inactive) | > 100 µM (inactive) | > 100 µM (inactive) | > 100 µM (inactive) | > 100 µM (inactive) | > 100 µM (inactive) | > 100 µM (inactive) | > 100 µM (inactive) | > 100 µM (inactive) |  | > 100 µM (inactive) | > 100 µM (inactive) | > 100 µM (inactive) | 32 µM (inactive) | > 100 µM (inactive) | > 100 µM (inactive) |
| CC1ON2CCCC2[C@H]1C(=O)N1C2CC3CCC2(CS1(=O)=O)C3(C)C (stereo not given in full) | > 100 µM (inactive) | > 100 µM (inactive) | > 100 µM (inactive) | > 100 µM (inactive) | > 100 µM (inactive) | > 100 µM (inactive) | > 100 µM (inactive) | > 100 µM (inactive) | > 100 µM (inactive) | > 100 µM (inactive) | > 100 µM (inactive) | > 100 µM (inactive) | > 100 µM (inactive) | > 100 µM (inactive) | > 100 µM (inactive) | > 100 µM (inactive) | > 100 µM (inactive) | > 100 µM (inactive) |  |
| O=C(O)c1ccccn1 [2-PICOLINIC ACID] | > 100 µM (inactive) | > 100 µM (inactive) | > 100 µM (inactive) | > 100 µM (inactive) | > 100 µM (inactive) | > 100 µM (inactive) | > 100 µM (inactive) | > 100 µM (inactive) | > 100 µM (inactive) | > 100 µM (inactive) | > 100 µM (inactive) | > 100 µM (inactive) | > 100 µM (inactive) | > 100 µM (inactive) | > 100 µM (inactive) | > 100 µM (inactive) | > 100 µM (inactive) | > 100 µM (inactive) |  |

From ChEMBL document CHEMBL1201862, “PubChem BioAssay data set” (2004)
